From patent US6346514B1, “Pharmaceutical lysine-containing polypeptide compositions and methods of use thereof” (priority 1991, dated 2002)

Test system: Vibrio anguillarum (V-775)
Assay: Vaccine augmentation in Rainbow trout challenged with Vibrio anguillarum
Format: in vivo, Rainbow trout (Oncorhynchus mykiss)
Method: In the present investigation, fish were obtained and inoculated at approximately 12 weeks of age. Immunologic studies were conducted under a variety of conditions in which fish were provided with vaccination to observe vaccine augmentation, and under conditions in which no vaccine was provided prior to inoculum. The effects of exposure time, HM897 concentration, and vaccine on mortalities relative to control studies in which no HM897 was administered provided data for analysis of the immunologic effect of HM897.
The study was conducted using Rainbow trout (Oncorhynchus mykiss) to compare the effects of a standard fish vaccine to the protection provided by varying dosages of HM897. The fish were challenged with Vibrio anguillarum (V-775), a bacteria that causes fatal vibriosis, typically 3-5 days following pathogen exposure.
Rainbow Trout (Oncorhynchus mykiss) weighing approximately 5 grams were used as test organisms. The fish were obtained from Cran-Mar Trout Farm. Upon arrival at BRL's facility, the fish were quarantined for a minimum of seven days, and observed to be disease free. During this period, the fish were held at a stable temperature. There was consistent water quality in an aerated flow-through system with a flow rate of approximately 30 liters per hour. During the holding period the fish were observed daily for signs of disease, stress, injury, hemorrhaging, and external parasite. The fish were not fed 48 hours prior to testing.
The Rainbow trout used in this study weighed an average of 5 grams. The fish were divided into 21 groups with 50 fish per group. Each group of 50 fish was maintained in two 10-gallon tanks (25 fish/tank).
The level of bacterial dilution to achieve a LD75 (the level designed to kill 75% of the non-vaccinated fish) was a dilution of 10^−4. to 10^−5. The challenge bacteria were grown for 48 hours at 25° C in trypticase soy broth. The 10^−4 dilution was made from this broth in 0.9% saline. All fish excepting the control group that received no bacterial challenge were inoculated 7 days after exposure to HM897.
Rainbow trout hatchling were exposed to the concentration of HM897 as described below. Some of the fish had been vaccinated while others had received no vaccination. In each tank, fifty vaccinated or unvaccinated fish were exposed for a period of 5 minutes to HM897, and then removed and placed in an assigned tank according to the group number.
The positive control group (III) received a vaccine made from Vibrio anguillarum (V-775). This was made through a fermentation and extraction process in the BRL laboratory facility and is equivalent to the aquaculture industry standard vibrio vaccine.
All groups scheduled to be challenged with the Vibrio anguillarum bacterium were challenged at the LD75 dilution on day seven of the experiment by i.p. injection of 0.1 mL of 10^−4 bacterial dilution. The fish were observed daily for mortalities.

Thr-Ala-Glu-Glu-Lys (TAEEK) [HM897]
Cumulative Mortalities (Day 1, Group IVa: vaccinated, HM897 2.5 μg/38 liters): 0 | Cumulative Mortalities (Day 1, Group IVb: vaccinated, HM897 10 μg/38 liters): 0 | Cumulative Mortalities (Day 1, Group IVc: vaccinated, HM897 50 μg/38 liters): 0 | Cumulative Mortalities (Day 1, Group IVd: vaccinated, HM897 100 μg/38 liters): 0 | Cumulative Mortalities (Day 1, Group Va: not vaccinated, HM897 10 μg/38 liters): 0 | Cumulative Mortalities (Day 1, Group Vb: not vaccinated, HM897 25 μg/38 liters): 0 | Cumulative Mortalities (Day 1, Group Vc: not vaccinated, HM897 75 μg/38 liters): 0 | Cumulative Mortalities (Day 1, Group Vd: not vaccinated, HM897 150 μg/38 liters): 0 | Cumulative Mortalities (Day 2.10, Group IVa: vaccinated, HM897 2.5 μg/38 liters): 0 | Cumulative Mortalities (Day 2.10, Group IVb: vaccinated, HM897 10 μg/38 liters): 0 | Cumulative Mortalities (Day 2.10, Group IVc: vaccinated, HM897 50 μg/38 liters): 0 | Cumulative Mortalities (Day 2.10, Group IVd: vaccinated, HM897 100 μg/38 liters): 0 | Cumulative Mortalities (Day 2.10, Group Va: not vaccinated, HM897 10 μg/38 liters): 0 | Cumulative Mortalities (Day 2.10, Group Vb: not vaccinated, HM897 25 μg/38 liters): 0 | Cumulative Mortalities (Day 2.10, Group Vc: not vaccinated, HM897 75 μg/38 liters): 0 | Cumulative Mortalities (Day 2.10, Group Vd: not vaccinated, HM897 150 μg/38 liters): 0 | Cumulative Mortalities (Day 11, Group IVa: vaccinated, HM897 2.5 μg/38 liters): 0 | Cumulative Mortalities (Day 11, Group IVb: vaccinated, HM897 10 μg/38 liters): 0 | Cumulative Mortalities (Day 11, Group IVc: vaccinated, HM897 50 μg/38 liters): 0 | Cumulative Mortalities (Day 11, Group IVd: vaccinated, HM897 100 μg/38 liters): 0 | Cumulative Mortalities (Day 11, Group Va: not vaccinated, HM897 10 μg/38 liters): 0 | Cumulative Mortalities (Day 11, Group Vb: not vaccinated, HM897 25 μg/38 liters): 0 | Cumulative Mortalities (Day 11, Group Vc: not vaccinated, HM897 75 μg/38 liters): 1 | Cumulative Mortalities (Day 11, Group Vd: not vaccinated, HM897 150 μg/38 liters): 0 | Cumulative Mortalities (Day 12, Group IVa: vaccinated, HM897 2.5 μg/38 liters): 0 | Cumulative Mortalities (Day 12, Group IVb: vaccinated, HM897 10 μg/38 liters): 0 | Cumulative Mortalities (Day 12, Group IVc: vaccinated, HM897 50 μg/38 liters): 0 | Cumulative Mortalities (Day 12, Group IVd: vaccinated, HM897 100 μg/38 liters): 0 | Cumulative Mortalities (Day 12, Group Va: not vaccinated, HM897 10 μg/38 liters): 0 | Cumulative Mortalities (Day 12, Group Vb: not vaccinated, HM897 25 μg/38 liters): 0 | Cumulative Mortalities (Day 12, Group Vc: not vaccinated, HM897 75 μg/38 liters): 1 | Cumulative Mortalities (Day 12, Group Vd: not vaccinated, HM897 150 μg/38 liters): 0 | Cumulative Mortalities (Day 13, Group IVa: vaccinated, HM897 2.5 μg/38 liters): 1 | Cumulative Mortalities (Day 13, Group IVb: vaccinated, HM897 10 μg/38 liters): 1 | Cumulative Mortalities (Day 13, Group IVc: vaccinated, HM897 50 μg/38 liters): 1 | Cumulative Mortalities (Day 13, Group IVd: vaccinated, HM897 100 μg/38 liters): 8 | Cumulative Mortalities (Day 13, Group Va: not vaccinated, HM897 10 μg/38 liters): 16 | Cumulative Mortalities (Day 13, Group Vb: not vaccinated, HM897 25 μg/38 liters): 18 | Cumulative Mortalities (Day 13, Group Vc: not vaccinated, HM897 75 μg/38 liters): 21 | Cumulative Mortalities (Day 13, Group Vd: not vaccinated, HM897 150 μg/38 liters): 14 | Cumulative Mortalities (Day 14, Group IVa: vaccinated, HM897 2.5 μg/38 liters): 7 | Cumulative Mortalities (Day 14, Group IVb: vaccinated, HM897 10 μg/38 liters): 5 | Cumulative Mortalities (Day 14, Group IVc: vaccinated, HM897 50 μg/38 liters): 5 | Cumulative Mortalities (Day 14, Group IVd: vaccinated, HM897 100 μg/38 liters): 15 | Cumulative Mortalities (Day 14, Group Va: not vaccinated, HM897 10 μg/38 liters): 24 | Cumulative Mortalities (Day 14, Group Vb: not vaccinated, HM897 25 μg/38 liters): 25 | Cumulative Mortalities (Day 14, Group Vc: not vaccinated, HM897 75 μg/38 liters): 29 | Cumulative Mortalities (Day 15, Group IVa: vaccinated, HM897 2.5 μg/38 liters): 10 | Cumulative Mortalities (Day 15, Group IVb: vaccinated, HM897 10 μg/38 liters): 6 | Cumulative Mortalities (Day 15, Group IVc: vaccinated, HM897 50 μg/38 liters): 10 | Cumulative Mortalities (Day 15, Group IVd: vaccinated, HM897 100 μg/38 liters): 16 | Cumulative Mortalities (Day 15, Group Va: not vaccinated, HM897 10 μg/38 liters): 28 | Cumulative Mortalities (Day 15, Group Vb: not vaccinated, HM897 25 μg/38 liters): 32 | Cumulative Mortalities (Day 15, Group Vc: not vaccinated, HM897 75 μg/38 liters): 32 | Cumulative Mortalities (Day 16, Group IVa: vaccinated, HM897 2.5 μg/38 liters): 13 | Cumulative Mortalities (Day 16, Group IVb: vaccinated, HM897 10 μg/38 liters): 6 | Cumulative Mortalities (Day 16, Group IVc: vaccinated, HM897 50 μg/38 liters): 10 | Cumulative Mortalities (Day 16, Group IVd: vaccinated, HM897 100 μg/38 liters): 17 | Cumulative Mortalities (Day 16, Group Va: not vaccinated, HM897 10 μg/38 liters): 33 | Cumulative Mortalities (Day 16, Group Vb: not vaccinated, HM897 25 μg/38 liters): 33 | Cumulative Mortalities (Day 16, Group Vc: not vaccinated, HM897 75 μg/38 liters): 33 | Cumulative Mortalities (Day 17, Group IVa: vaccinated, HM897 2.5 μg/38 liters): 13 | Cumulative Mortalities (Day 17, Group IVb: vaccinated, HM897 10 μg/38 liters): 7 | Cumulative Mortalities (Day 17, Group IVc: vaccinated, HM897 50 μg/38 liters): 10
